We go through one compound from US20120238532A1, “TREATMENT OF HUMAN OSTEOSARCOMA” (CEDARS-SINAI MEDICAL CENTER, priority 2009, published 2012).

For one data set, the system named is SAOS-2 cells. The data set can be described thus: Annexin V-FITC apoptosis assay, SAOS-2. The class given is cell-based, human. Conditions: at ED50, 72 hours of exposure. The protocol: Cells were harvested and fixed with 70% ethanol at regular time intervals. Fixed cells were stained with propidium iodide (PI) for flow cytometry analysis using BD FACScan (BD Biosciences, San Jose, Calif.). Distribution of cell cycle was analyzed by ModFit LT V2.0 software (Verity Software House, Topsham, Me.). […] After 24, 48, and 72 hours of exposure, cells were harvested and stained with PI and fluorescein isothiocyanate (FITC) using Annexin V-FITC apoptosis detection kit (BD Biosciences) according to the manufacturer's protocol. Cells were subjected to flow cytometry analysis within one hour of staining.

For another data set, the system named is cyclin D1. The data set can be described thus: Western blotting, cyclin D1. It is filed as cell-based, human. Conditions: MG-63 cells. The method, then:
Changes in protein level by CuB were checked by Western blotting. […] After 2, 9, and 20 hours of exposure, cells were harvested and immediately lysed with RIPA buffer (Millipore—Upstate, Temecula, Calif.) supplemented with protease inhibitor cocktail (Roche, San Francisco, Calif.), 0.5 mM PMSF (Roche), and 50 mM NaF (Sigma). After 20 minutes of incubation on ice, protein concentrations were measured by Bradford assay with Bio Rad protein assay solution (Bio-Rad, Hercules, Calif.) and samples were adjusted to the same protein concentration. Samples were mixed with 2× Laemmli sample buffer (Bio-Rad) with 5% β-mercaptoethanol (Sigma) and incubated at 95° C. for 10 min to denature the protein. After brief incubation on ice, proteins were separated by SDS-PAGE, transferred to nitrocellulose membrane (Sigma), and blotted with antibodies from either Cell Signaling Technology (Danvers, Mass.) or Santa Cruz Biotechnology (Santa Cruz, Calif.). Target proteins were visualized by Supersignal West Dura Substrate (Thermo-Pierce, Rockford, Ill.). GAPDH protein was used as a loading control.
(In general: Immunoblotting shows a protein as a band on a membrane.)

For data set [1], the system named is MG-63 xenografts. The data set can be described thus: Growth of MG-63 xenografts in athymic nude mice. It is filed as in vivo. The protocol:
All animal experiments strictly followed the guidelines of Cedars-Sinai Medical Center and the National Institute of Health (NIH). Female nu/nu athymic nude mice (5-6 weeks old; average weight 21 g; specific pathogen-free) from Harlan Laboratories (Indianapolis, Ind.) were maintained in pathogen-free condition with sterilized chow and water. 5×10^6 cells of MG-63 cells were mixed with 200 μl of Matrigel solution (BD Biosciences) per injection, and the mixture was injected subcutaneously on the upper flanks of nude mice. After 24 hours, tumor size was measured, and any outliers were ruled out by one-way analysis of variance (ANOVA) test. […] The conversion was made using dose translation formula by Reagan-Shaw et al., (15). […] Body weights were monitored every 2 days. Tumor size was measured every 2 days, and the tumor volume was calculated using the following formula: A (length)×B (width)×C (height)×0.5236 (16). The experiment was stopped at day 35, and all mice were sacrificed. The presence of metastatic spread was examined macroscopically at the time of autopsy followed by histological examination. At least two tumors from each group were snap-frozen in liquid nitrogen for Western blotting.

In data set [2] the test system is MG-63 xenografts. The experiment in a line: Immunohistochemistry of xenografts (HE, Ki-67, TUNEL). The class given is in vivo, mice. Conditions: LD-CuB 0.5 mg/kg; day 35. The source says: At autopsy, tumors and internal organs including liver, spleen, kidneys were excised, weighed, and then fixed in 10% PBS-buffered formalin and maintained in 70% ethanol. For IHC, fixed tumors and organs were embedded in paraplast (Oxford Labware, St. Louis, Mo.), cut in 6 μm thick sections, and stained with hematoxylin and eosin (HE) for histopathological examination.
For Ki-67 proliferation assay, tumor sections were deparaffinized with xylene and rehydrated through graded ethanol. Endogenous peroxidase activity was blocked with 3% hydrogen peroxide in methanol. […] After incubation, tumor sections were stained with diaminobenzidine (DAB) and counterstained with hematoxylin. Terminal deoxynucleotidyl transferase dUTP nick end labeling (TUNEL) apoptosis assay was performed using ApopTaq Plus Peroxidase In Situ Apoptosis Kit (Millipore) according to the manufacturer's protocol. Percent positive cells in representative microscopic fields were counted using ImageJ (17).

A short description of a further data set: Blood counts in mice. The following applies: day 35. The class given is in vivo.
In the next data set the target is mTOR (Homo sapiens, UniProt P42345). The data set can be described thus: DARTS analysis, mTOR. The class given is binding. The arrangement: endogenous in cells; host or cells: MG-63 whole-cell lysate. The following applies: MG-63 whole-cell lysates; 10, 100, or 1000 nM, 30 min. The method, then:
Direct interaction of CuB and mTOR was assessed by DARTS as described in the original article with some modifications (14). Briefly, confluent MG-63 cells were harvested and lysed with lysis buffer (1% Triton X-100, 150 mM NaCl. 100 mM Tris-HCl, pH 7.4, 1 mM EDTA, and 1 mM EGTA, pH 8.0) supplemented with protease inhibitor (Roche, San Francisco, Calif.), 0.2 mM PMSF (Roche), and 0.2 mM Na3VO4 (Sigma). Cell lysates were incubated with 0.1 volume of increasing concentrations (10-1000 nM) of either DMSO or CuB at room temperature for 30 min. Lysates were then proteolyzed with thermolysin (Sigma) at room temperature for 3 min. Reaction was stopped by adding 0.5 M EDTA solution and 2× Laemmli sample buffer (Bio-Rad, Hercules, Calif.) with 5% β-mercaptoethanol (Sigma). Western blotting was performed as described below.

SMILES strings stand for the structures.

Description for Blood counts in mice: Whole blood samples were obtained by submandibular bleeding and serum samples were harvested with serum separator tubes (BD Biosciences). Blood count and serum chemistry results were obtained by the Hemagen Analyst Benchtop Chemistry System (Hemagen Diagnostics, Inc. Columbia, Md.). Colony-forming cell (CFC) assays were performed as previously described (18).

In turn, `CC(=O)OC(C)(C)/C=C/C(=O)[C@](C)(O)[C@H]1[C@H](O)C[C@@]2(C)[C@@H]3CC=C4[C@H](C[C@H](O)C(=O)C4(C)C)[C@]3(C)C(=O)C[C@]12C` [CuB, cucurbitacin B] registered an apoptotic cells in the data set on SAOS-2 cells of 96%. Also, the “levels of cyclin D1” value in the data set with cyclin D1 was “Decrease in the levels of cyclin D1 occurred in MG-63”. Also, in the data set with MG-63 xenografts [1] (HD-CuB 1.0 mg/kg alone), the tumor growth inhibition result is recorded as “strong growth inhibition”. Also, the tumor volume result in the data set on MG-63 xenografts [1] (LD-CuB 0.5 mg/kg, single agent) is “allowed the tumor volume to increase slightly from its original size”. Also, the HE-stained tumors result in the data set on MG-63 xenografts [2] is “decreased tumor area and smaller blood vessels”. In the data set “Blood counts in mice” (HD-CuB 1.0 mg/kg), this compound had a Basophils of 0.05 ± 0.07 K/μl, an Eosinophils of 0.15 ± 0.07 K/μl, a Hb of 10.10 ± 0.42 g/dL and a Lymphocytes of 2.90 ± 0.71 K/μl. In “Blood counts in mice” (HD-CuB 1.0 mg/kg), this compound came in with a Monocytes of 0.35 ± 0.07 K/μl, a Neutrophills of 2.10 ± 0.42 K/μl, a Platelets of 651 ± 52.33 K/μl and an RBCs of 7.78 ± 0.45 M/μl. The compound also returned a WBCs in the data set “Blood counts in mice” (HD-CuB 1.0 mg/kg) of 5.55 ± 1.34 K/μl. Also, in the data set “Blood counts in mice” (LD-CuB 0.5 mg/kg), the Basophils was determined as 0.00 ± 0.00 K/μl, the Eosinophils stood at 0.01 ± 0.01 K/μl, the Hb is 9.60 ± 0.85 g/dL and the Lymphocytes is 2.63 ± 0.24 K/μl. In “Blood counts in mice” (LD-CuB 0.5 mg/kg), this compound returned a Monocytes of 0.18 ± 0.03 K/μl, a Neutrophills of 1.42 ± 0.30 K/μl, a Platelets of 742 ± 115.97 K/μl and an RBCs of 7.21 ± 1.00 M/μl. In the data set “Blood counts in mice” (LD-CuB 0.5 mg/kg), the WBCs amounted to 4.23 ± 0.04 K/μl. Besides, the “protection of mTOR protein from thermolysin proteolysis (DARTS)” value on mTOR is on record as “dose-dependent protection of mTOR protein from thermolysin proteolysis”.
